# Key:
# Details in all cases: 72 h
# U2OS [1] = assay: drug sensitivity score (DSS) for viability; higher = more toxic; extreme values may be limits of the assay
# Caco-2 [2] = assay: as above
# HepG2 [3] = assay: as above
# Calu-3 [4] = assay: as above
# Vero E6 [5] = assay: as above
# U2OS [6] = assay: relative viability EC50 (midpoint between 100% and the lowest measured viability); higher = less toxic
# Caco-2 [7] = assay: as above
# HepG2 [8] = assay: as above
# Calu-3 [9] = assay: as above
# Vero E6 [10] = assay: as above
# U2OS [11] = assay: cell viability relative to DMSO; higher = less toxic
# Caco-2 [12] = assay: as above
# HepG2 [13] = assay: as above
# Calu-3 [14] = assay: as above
# Vero E6 [15] = assay: as above
SMILES,drug sensitivity score (U2OS [1]),drug sensitivity score (Caco-2 [2]),drug sensitivity score (HepG2 [3]),drug sensitivity score (Calu-3 [4]),drug sensitivity score (Vero E6 [5]),relative viability EC50 (U2OS [6]),relative viability EC50 (Caco-2 [7]),relative viability EC50 (HepG2 [8]),relative viability EC50 (Calu-3 [9]),relative viability EC50 (Vero E6 [10]),cell viability (U2OS [11]; 1 nM),cell viability (U2OS [11]; 10 nM),cell viability (U2OS [11]; 100 nM),cell viability (U2OS [11]; 1000 nM),cell viability (U2OS [11]; 10000 nM),cell viability (Caco-2 [12]; 1 nM),cell viability (Caco-2 [12]; 10 nM),cell viability (Caco-2 [12]; 100 nM),cell viability (Caco-2 [12]; 1000 nM),cell viability (Caco-2 [12]; 10000 nM),cell viability (HepG2 [13]; 1 nM),cell viability (HepG2 [13]; 10 nM),cell viability (HepG2 [13]; 100 nM),cell viability (HepG2 [13]; 1000 nM),cell viability (HepG2 [13]; 10000 nM),cell viability (Calu-3 [14]; 1 nM),cell viability (Calu-3 [14]; 10 nM),cell viability (Calu-3 [14]; 100 nM),cell viability (Calu-3 [14]; 1000 nM),cell viability (Calu-3 [14]; 10000 nM),cell viability (Vero E6 [15]; 1 nM),cell viability (Vero E6 [15]; 10 nM),cell viability (Vero E6 [15]; 100 nM),cell viability (Vero E6 [15]; 1000 nM),cell viability (Vero E6 [15]; 10000 nM)
CC(C)(C)NCC(O)c1cc(Br)no1 (stereo not given) [broxaterol],0,0,0,0,0,> 10 µM,> 10 µM,> 10 µM,> 10 µM,> 10 µM,104%,99.1%,97.6%,102%,99.4%,103%,99.2%,93%,96.2%,104%,105%,96.9%,92.5%,94.8%,97.2%,111%,95.4%,108%,111%,95.9%,105%,101%,103%,98.8%,99.4%
CC(C)NCC(O)COc1cccc2[nH]c3ccccc3c12 (stereo not given) [carazolol],0,0,0,0,0,> 10 µM,> 10 µM,> 10 µM,> 10 µM,> 10 µM,103%,96.3%,102%,97.8%,99.7%,97.4%,89.7%,104%,98.1%,105%,85.6%,99%,98.6%,101%,104%,102%,101%,90.9%,95.7%,106%,98%,99.1%,90.1%,100%,99.3%
COCC1=C(C(=O)O)N2C(=O)[C@@H](NC(=O)/C(=N\OC)c3csc(N)n3)[C@H]2SC1 [cefpodoxime],0,0,0,0,0,> 10 µM,> 10 µM,> 10 µM,> 10 µM,> 10 µM,104%,99.6%,105%,102%,101%,106%,112%,97.5%,91.4%,105%,106%,103%,108%,101%,96.1%,98%,105%,96.8%,99.4%,103%,99.7%,98.1%,99.2%,97.5%,99.4%
CCN(CC)C(=O)Nc1ccc(OCC(O)CNC(C)(C)C)c(C(C)=O)c1 (stereo not given) [celiprolol],0,0,0,0,0,> 10 µM,> 10 µM,> 10 µM,> 10 µM,> 10 µM,101%,100%,96.5%,95.9%,95.3%,95.4%,106%,112%,103%,106%,99.6%,98.9%,106%,88.1%,103%,104%,104%,106%,98.7%,96.4%,103%,104%,102%,106%,97.3%
CC1=C(C(=O)O)N2C(=O)[C@@H](NC(=O)[C@H](N)c3ccccc3)[C@H]2SC1 [cephalexin],0,0,0,0,0,> 10 µM,> 10 µM,> 10 µM,> 10 µM,> 10 µM,99.2%,91.5%,99.1%,94.7%,104%,95.2%,94.6%,100%,98%,115%,101%,97.1%,92.7%,95.2%,105%,94.8%,101%,88.4%,112%,94.9%,95.8%,100%,96.7%,101%,103%
Oc1ccc(Cl)c2c1CCC2 [chlorindanol],0,0,0.3,0,0,> 10 µM,> 10 µM,> 10 µM,> 10 µM,> 10 µM,101%,98.8%,97.1%,107%,98.9%,115%,93.9%,84.6%,105%,99.5%,110%,89.5%,97.9%,95.2%,84.1%,99.8%,118%,107%,109%,96.9%,99.5%,100%,103%,96.4%,103%
CN(C)CC/C=C1/c2ccccc2Sc2ccc(Cl)cc21 [chlorprothixene],0,0,0.6,0.1,0,> 10 µM,> 10 µM,> 10 µM,> 10 µM,> 10 µM,104%,101%,102%,99.7%,100%,122%,99.5%,96.2%,90.5%,100%,99.6%,103%,103%,98.4%,82.9%,103%,101%,106%,106%,84.8%,103%,110%,103%,106%,89.2%
N[C@]1(C(=O)O)CC[C@@H](C(=O)O)C1 [cis-ACPD],0,0,0,0,0,> 10 µM,> 10 µM,> 10 µM,> 10 µM,> 10 µM,98.7%,94.1%,98.1%,101%,97.9%,102%,94.7%,101%,104%,94.5%,105%,111%,99.5%,96.1%,103%,95.3%,101%,108%,107%,101%,103%,99.1%,99.4%,98.1%,102%
NC1CCN(c2c(F)cc3c(=O)c(C(=O)O)cn(C4CC4)c3c2Cl)C1 (stereo not given) [clinafloxacin],0,0,0,0,0,> 10 µM,> 10 µM,> 10 µM,> 10 µM,> 10 µM,95%,102%,97.5%,102%,102%,98.7%,100%,89.7%,106%,108%,115%,97%,108%,97.3%,109%,95.5%,94.4%,94.7%,97.6%,99.5%,102%,97%,95%,98.7%,104%
COc1cccc2c1C(=O)c1c(O)c3c(c(O)c1C2=O)C[C@@](O)(C(C)=O)C[C@@H]3O[C@H]1C[C@H](N)[C@H](O)[C@H](C)O1 [daunorubicin],20.7,15.8,25.7,16.9,10.8,0.187 µM,0.145 µM,0.059 µM,0.177 µM,0.963 µM,96.6%,103%,80.9%,2.4%,0.1%,86.3%,93.4%,74.6%,29.8%,28%,108%,75.8%,43.3%,2%,0.2%,99.7%,96%,69.3%,29.4%,16.1%,93.7%,97.8%,87.9%,54.3%,4.6%
COc1cc2c(cc1OC)-c1c(C)c3ccc(OC)c(OC)c3c[n+]1CC2 [dehydrocorydaline],0,0,0,0,0,> 10 µM,> 10 µM,> 10 µM,> 10 µM,> 10 µM,99.1%,101%,98.6%,100%,97.1%,97.6%,100%,92.5%,101%,88.8%,98.6%,99.4%,95.1%,94.2%,95.7%,96.4%,105%,91.2%,102%,100%,95.9%,100%,99.6%,94.8%,98.5%
COc1ccc(-c2cc(C(F)F)nn2-c2ccc(S(N)(=O)=O)cc2)cc1F [deracoxib],0,0,1.5,0,0,> 10 µM,> 10 µM,> 10 µM,> 10 µM,> 10 µM,91.3%,90.2%,93.7%,88.7%,107%,99.9%,93.5%,98.1%,98.6%,102%,96.4%,112%,90.5%,89.7%,86.5%,100%,93.8%,104%,93.3%,109%,97.3%,99.7%,94.2%,101%,98.8%
CC(C)(C)C(=O)OCC(=O)[C@H]1CC[C@H]2[C@@H]3CCC4=CC(=O)CC[C@]4(C)[C@H]3CC[C@]12C [desoxycorticosterone-pivalate],0,0,0,0,0,> 10 µM,> 10 µM,> 10 µM,> 10 µM,> 10 µM,101%,98.1%,99.1%,99.4%,97.9%,104%,97%,103%,99.7%,95.3%,97%,98.8%,95.7%,89%,98.2%,98.9%,90.9%,98.6%,89.2%,101%,102%,99%,101%,99.8%,101%
CN(C)CCOC(c1ccccc1)c1ccccc1.Cn1c(=O)c2[nH]c(Cl)nc2n(C)c1=O [dimenhydrinate],0,0,0,0,0,> 10 µM,> 10 µM,> 10 µM,> 10 µM,> 10 µM,102%,96.5%,98%,102%,106%,96.3%,88.1%,88.1%,104%,99.5%,95.7%,103%,110%,107%,106%,103%,94.4%,97.2%,99.2%,98%,93.8%,99.7%,96.2%,100%,103%
